According to PMC8234192 (2021):

Tested on: dsDNA (69 bp) (DNA, duplex) GATACGAGCATCGTGTAGGCATCGTAGGTAATACGGATGTGCTAGCTTATTGAATTCAGAGATCTATGC/GCATAGATCTCTGAATTCAATAAGCTAGCACATCCGTATTACCTACGATGCCTACACGATGCTCGTATC
Test: fluorescence molecular brightness titration (FCS set-up)
Settings: 137 mM Na+, 2.7 mM K+, PBS pH 7.4, 0.002% Tween20, 25 °C, 20 nM YOYO-1, mono-intercalation step, 3.5 bp per site

K1: 3.36 ± 0.43 × 10^7 M^-1
SMILES: CN1C(=Cc2cc[n+](CCC[N+](C)(C)CCC[N+](C)(C)CCC[n+]3ccc(C=C4Oc5ccccc5N4C)c4ccccc43)c3ccccc23)Oc2ccccc21
